Assay results taken from patent publication US9770509B2, “Self micro-emulsifying drug delivery system with increased bioavailability” (Pharmaceutics International, Inc., priority 2010, dated 2017).

Assay: Temperature cycling / physical stability of solvents, systems and formulations
Type: physicochemical
Description: Temperature Cycling of Selected Solvents and Solubility Systems was studied. Systems were prepared at ambient temperature, with mixed solvent in the weight ratios reported in brackets. Mitotane, 0.25 grams, was then added to 1 gram of each solvent or solvent mixture. Samples were placed in the refrigerator (5° C.±3° C.) and observations were recorded. The samples were then left at ambient temperature for 24 hours, and observations recorded. The samples were then placed in a 40° C. oven, and final observation was made after another 24 hours. These observations are recorded in the table below.
Based on these studies, several formulations were prepared (see Tables 10 and 11). Temperature cycling was tested to evaluate the physical stability of the three formulations F-2772-054 (33.3% drug w/w), F-2772-055 (20.0% drug w/w), and F-2772-057 (33.3% drug w/w) as well as formulations F-2772-054 and 057 at 28.5% drug w/w. […] Temperature cycling consisted of three stages for 24 hour periods; refrigeration (5° C.), 40° C. conventional oven, and room temperature. After each 24 hour cycle, solutions were evaluated for clarity.

Clc1ccc(C(c2ccccc2Cl)C(Cl)Cl)cc1 (centres unmarked) [mitotane, Mitotane]
Highest mitotane concentration trial found to be the most stable: 28.5 % weight/weight | Highest most stable mitotane concentration expressed as drug loading (28.5/(100-28.5)): 40 % drug loading
